Measured values reported in the supplement of paper PMC10307832.

Columns and labels:
Assay in all cases: relative viability (nuclei count vs DMSO), 5 days (fraction); higher = more cells survive
NCI-H1648 = system: NCI-H1648
Method in brief: (§1)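 Dosing by pin tool came one day after lung cancer cell lines were seeded in 1536-well plates, using either one drug or a fixed anchor-drug dose plus five library-drug doses (not always all listed) in √10 steps. After 5 days, nuclei were counted on 4× images. Relative viability is treated-well nuclei count divided by vehicle-well nuclei count, and values are medians of duplicate plates.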

NCI-H2023 = system: NCI-H2023
Method in brief: as §1

NCI-H2170 = system: NCI-H2170
Method in brief: as §1

NCI-H520 = system: NCI-H520
Method in brief: as §1

A549 = system: A549
Method in brief: as §1

Calu-6 = system: Calu-6
Method in brief: as §1

EBC-1 = system: EBC-1
Method in brief: as §1

IA-LM = system: IA-LM
Method in brief: as §1

NCI-H1299 = system: NCI-H1299
Method in brief: as §1

NCI-H1703 = system: NCI-H1703
Method in brief: as §1

NCI-H727 = system: NCI-H727
Method in brief: as §1

What does the source list for `CCNC(=O)c1noc(-c2cc(C(C)C)c(O)cc2O)c1-c1ccc(CN2CCOCC2)cc1` [Luminespib] + Nc1nc2[nH]cc(CCc3ccc(C(=O)N[C@@H](CCC(=O)O)C(=O)O)cc3)c2c(=O)[nH]1 [Pemetrexed] (partner 0.2 µM)?
relative viability (NCI-H1648; first compound 0.002 µM): 0.753; relative viability (NCI-H1648; first compound 0.006325 µM): 0.683; relative viability (NCI-H1648; first compound 0.02 µM): 0.899; relative viability (NCI-H1648; first compound 0.06325 µM): 0.749; relative viability (NCI-H1648; first compound 0.2 µM): 0.267; relative viability (NCI-H2023; first compound 0.002 µM): 0.28; relative viability (NCI-H2023; first compound 0.006325 µM): 0.244; relative viability (NCI-H2023; first compound 0.02 µM): 0.0961; relative viability (NCI-H2023; first compound 0.06325 µM): 0.071; relative viability (NCI-H2023; first compound 0.2 µM): 0.0739; relative viability (NCI-H2170; first compound 0.002 µM): 0.291; relative viability (NCI-H2170; first compound 0.006325 µM): 0.267; relative viability (NCI-H2170; first compound 0.06325 µM): 0.219; relative viability (NCI-H2170; first compound 0.2 µM): 0.141; relative viability (NCI-H520; first compound 0.002 µM): 0.691; relative viability (NCI-H520; first compound 0.006325 µM): 0.699; relative viability (NCI-H520; first compound 0.02 µM): 0.792; relative viability (NCI-H520; first compound 0.06325 µM): 0.135; relative viability (NCI-H520; first compound 0.2 µM): 0.13

For `Nc1cccc2c1CN(C1CCC(=O)NC1=O)C2=O` (stereo not drawn) [Lenalidomide] + Cc1nc(NC(=O)N2CCC[C@H]2C(N)=O)sc1-c1ccnc(C(C)(C)C(F)(F)F)c1 [Alpelisib] (partner 2 µM), which relative viability (A549; first compound 0.253 µM) is on record?
The relative viability was 0.789.

And the relative viability (A549; first compound 0.8 µM)?
The relative viability was 0.765.

And the relative viability (A549; first compound 2.53 µM)?
Its relative viability is 0.813.

And the relative viability (A549; first compound 8 µM)?
Its relative viability is 0.702.

What about the relative viability (Calu-6; first compound 0.253 µM) of the same compound?
Its relative viability is 0.945.

What about the relative viability (Calu-6; first compound 0.8 µM) of the same compound?
Its relative viability is 0.946.

And the relative viability (Calu-6; first compound 2.53 µM)?
The relative viability was 1.08.

What about the relative viability (Calu-6; first compound 8 µM) of the same compound?
Its relative viability is 1.02.

What about the relative viability (EBC-1; first compound 0.253 µM) of the same compound?
Its relative viability is 0.787.

What about the relative viability (EBC-1; first compound 0.8 µM) of the same compound?
Its relative viability is 0.798.

And the relative viability (EBC-1; first compound 2.53 µM)?
Its relative viability is 0.907.

What about the relative viability (EBC-1; first compound 8 µM) of the same compound?
Its relative viability is 1.01.

And the relative viability (IA-LM; first compound 0.253 µM)?
Its relative viability is 0.716.

And the relative viability (IA-LM; first compound 0.8 µM)?
The relative viability was 0.735.

And the relative viability (IA-LM; first compound 2.53 µM)?
The relative viability was 0.797.

And the relative viability (IA-LM; first compound 8 µM)?
Its relative viability is 0.75.

What about the relative viability (NCI-H1299; first compound 0.253 µM) of the same compound?
Its relative viability is 1.03.

And the relative viability (NCI-H1299; first compound 0.8 µM)?
The relative viability was 1.1.

And the relative viability (NCI-H1299; first compound 2.53 µM)?
Its relative viability is 1.06.

What about the relative viability (NCI-H1299; first compound 8 µM) of the same compound?
The relative viability was 1.09.

What about the relative viability (NCI-H1703; first compound 0.253 µM) of the same compound?
The relative viability was 0.253.

What about the relative viability (NCI-H1703; first compound 0.8 µM) of the same compound?
Its relative viability is 0.276.

What about the relative viability (NCI-H1703; first compound 2.53 µM) of the same compound?
The relative viability was 0.366.

What about the relative viability (NCI-H1703; first compound 8 µM) of the same compound?
Its relative viability is 0.354.

And the relative viability (NCI-H2023; first compound 0.253 µM)?
The relative viability was 0.594.

And the relative viability (NCI-H2023; first compound 0.8 µM)?
Its relative viability is 0.745.

And the relative viability (NCI-H2023; first compound 2.53 µM)?
The relative viability was 0.697.

And the relative viability (NCI-H2023; first compound 8 µM)?
Its relative viability is 0.61.

What about the relative viability (NCI-H2170; first compound 0.253 µM) of the same compound?
The relative viability was 0.881.

And the relative viability (NCI-H2170; first compound 0.8 µM)?
Its relative viability is 0.781.

And the relative viability (NCI-H2170; first compound 2.53 µM)?
The relative viability was 0.84.

What about the relative viability (NCI-H2170; first compound 8 µM) of the same compound?
Its relative viability is 0.755.

And the relative viability (NCI-H520; first compound 0.253 µM)?
The relative viability was 0.88.

What about the relative viability (NCI-H520; first compound 0.8 µM) of the same compound?
The relative viability was 0.922.

And the relative viability (NCI-H520; first compound 2.53 µM)?
The relative viability was 1.15.

What about the relative viability (NCI-H520; first compound 8 µM) of the same compound?
Its relative viability is 0.779.

And the relative viability (NCI-H727; first compound 0.253 µM)?
The relative viability was 0.546.

And the relative viability (NCI-H727; first compound 2.53 µM)?
The relative viability was 0.543.

What about the relative viability (NCI-H727; first compound 8 µM) of the same compound?
The relative viability was 0.553.

For `CN1CCN(CCOc2cc(OC3CCOCC3)c3c(Nc4c(Cl)ccc5c4OCO5)ncnc3c2)CC1` [Saracatinib] + C[C@@H](Oc1cc(-c2cnn(C3CCNCC3)c2)cnc1N)c1c(Cl)ccc(F)c1Cl [Crizotinib] (partner 1 µM), which relative viability (A549; first compound 0.02 µM) is on record?
Its relative viability is 0.74.

And the relative viability (A549; first compound 0.2 µM)?
The relative viability was 0.738.

What about the relative viability (A549; first compound 0.6325 µM) of the same compound?
The relative viability was 0.649.

What about the relative viability (A549; first compound 2 µM) of the same compound?
Its relative viability is 0.549.

What about the relative viability (Calu-6; first compound 0.02 µM) of the same compound?
Its relative viability is 0.769.

And the relative viability (Calu-6; first compound 0.2 µM)?
Its relative viability is 0.594.

What about the relative viability (Calu-6; first compound 0.6325 µM) of the same compound?
The relative viability was 0.662.

What about the relative viability (Calu-6; first compound 2 µM) of the same compound?
The relative viability was 0.526.

And the relative viability (EBC-1; first compound 0.02 µM)?
Its relative viability is 0.174.

What about the relative viability (EBC-1; first compound 0.2 µM) of the same compound?
The relative viability was 0.198.

And the relative viability (EBC-1; first compound 0.6325 µM)?
The relative viability was 0.188.

And the relative viability (EBC-1; first compound 2 µM)?
The relative viability was 0.181.

And the relative viability (IA-LM; first compound 0.02 µM)?
Its relative viability is 1.07.

What about the relative viability (IA-LM; first compound 0.2 µM) of the same compound?
The relative viability was 1.08.

What about the relative viability (IA-LM; first compound 0.6325 µM) of the same compound?
Its relative viability is 1.24.

And the relative viability (IA-LM; first compound 2 µM)?
The relative viability was 0.738.

What about the relative viability (NCI-H1299; first compound 0.02 µM) of the same compound?
The relative viability was 0.942.

What about the relative viability (NCI-H1299; first compound 0.2 µM) of the same compound?
Its relative viability is 0.948.

What about the relative viability (NCI-H1299; first compound 0.6325 µM) of the same compound?
The relative viability was 0.985.

What about the relative viability (NCI-H1299; first compound 2 µM) of the same compound?
The relative viability was 0.781.

What about the relative viability (NCI-H1703; first compound 0.02 µM) of the same compound?
The relative viability was 0.553.

And the relative viability (NCI-H1703; first compound 0.2 µM)?
Its relative viability is 0.633.

What about the relative viability (NCI-H1703; first compound 0.6325 µM) of the same compound?
Its relative viability is 0.23.

What about the relative viability (NCI-H1703; first compound 2 µM) of the same compound?
The relative viability was 0.0951.

What about the relative viability (NCI-H2023; first compound 0.02 µM) of the same compound?
The relative viability was 0.769.

What about the relative viability (NCI-H2023; first compound 0.2 µM) of the same compound?
Its relative viability is 0.428.

What about the relative viability (NCI-H2023; first compound 0.6325 µM) of the same compound?
Its relative viability is 0.391.

What about the relative viability (NCI-H2023; first compound 2 µM) of the same compound?
The relative viability was 0.356.

What about the relative viability (NCI-H2170; first compound 0.02 µM) of the same compound?
The relative viability was 1.13.

And the relative viability (NCI-H2170; first compound 0.2 µM)?
Its relative viability is 1.24.

What about the relative viability (NCI-H2170; first compound 0.6325 µM) of the same compound?
Its relative viability is 1.13.

What about the relative viability (NCI-H2170; first compound 2 µM) of the same compound?
Its relative viability is 0.649.

What about the relative viability (NCI-H520; first compound 0.02 µM) of the same compound?
The relative viability was 0.74.

What about the relative viability (NCI-H520; first compound 0.2 µM) of the same compound?
The relative viability was 0.732.

What about the relative viability (NCI-H520; first compound 0.6325 µM) of the same compound?
The relative viability was 0.531.

What about the relative viability (NCI-H520; first compound 2 µM) of the same compound?
Its relative viability is 0.37.

What about the relative viability (NCI-H727; first compound 0.02 µM) of the same compound?
Its relative viability is 0.904.

What about the relative viability (NCI-H727; first compound 0.2 µM) of the same compound?
The relative viability was 0.452.

What about the relative viability (NCI-H727; first compound 0.6325 µM) of the same compound?
Its relative viability is 0.617.

And the relative viability (NCI-H727; first compound 2 µM)?
The relative viability was 0.378.
